This assay concerns the target thrombin receptor. The experiment in a line: Specific binding of 125I thrombin to rat chondrocytes (Scatchard analysis). The procedure:
Primary cultures of rat articular chondrocytes were isolated and prepared for in vitro analysis using established methods (see Kuettner, K E., et.al., J. Cell Biology 93: 743-750, 1982). Briefly, cartilage pieces were dissected from the shoulder of rats and the pieces were digested with trypsin for one hour and with collagenase for three hours in tissue culture medium (DMEM) at 37 C. with stirring. The cells were plated in flasks at high density (50,000 cells/cm sq.) and were culture in DMEM containing antibiotics an ascorbic acid at 37° C. in an atmosphere of 5% CO2.

We go through 1 substance from US6855687B2 (The Board of Regents The University of Texas System, priority 2000, dated 2005).

Like-named read-outs stand apart in the source and are kept apart here.

As to thrombin, the Kd (Scatchard analysis, 125I thrombin, three separate experiments, read-out: affinity of very high affinity binding sites) stood at 100 pM and the Kd (summary statement of Example 1, read-out: apparent affinity (3000 sites)) is ~100 pM.
